Assay results published in patent publication US7642063B2, “Methods for targeting and killing glioma cells” (Auburn University, priority 2004, dated 2010).

Assays:
[1] = test system: RG2 glioma cells; assay: Cytotoxicity by MTT assay on glioma cells; format: cell-based, rat; conditions: 10 or 100 uM, 48 hours incubation
Procedure: (§1) Using glioma-selective sequences from the second family shown in FIG. 4 (and in FIG. 5(a)), a fusion molecule containing the same identical cell-targeting peptide coupled to a cell-killing peptide was designed and synthesized. Glioma cells (malignant cells originating from astrocytes) and normal astrocytes were treated with increasing concentrations (10 or 100 uM) of cytotoxic peptide alone, or cytotoxic peptide linked to the targeting peptide, i.e. the peptide drug, and cytotoxicity was evaluated by MTT assay (this assay measures cell viability).
(§2) FIG. 5(b) further illustrates the cytotoxic effect of d(KLAKLAK)2(SEQ ID NO:4) and DSTK-GG-d(KLAKLAK)2(SEQ ID NO:5) peptides on the glioma cells and the normal astrocytes. RG2 glioma cells and normal rat astrocytes were plated in quadruplicate in 96-well plates for 24 hours. Increasing concentrations (10 or 100 uM) of cytotoxic peptide alone, d(KLAKLAK)2(SEQ ID NO:4), or cytotoxic peptide linked to targeting peptide, DSTK-GG-d(KLAKLAK)2(SEQ ID NO:5), were added to the cells for 48 hours incubation. Cytotoxicity of therapeutic peptides were evaluated by MTT assay.

[2] = test system: normal rat astrocytes; assay: Cytotoxicity by MTT assay on normal astrocytes; format: cell-based; conditions: 10 or 100 uM, 48 hours incubation
Procedure: as §1, §2

[3] = test system: RG2 glioma cells; assay: Detection of internalized phage particles by immunofluorescence microscopy (saponin+/saponin−); format: cell-based, rat; conditions: saponin-treated vs untreated RG2 cells
Procedure: FIG. 5(a) illustrates the detection of internalized phage particles by immunofluorescence microscopy. RG2 glioma cells were grown on chamber slides and incubated with DSTKSGNM (SEQ ID NO:3) phage. In cells treated with saponin (saponin+) to permeabilize cell membranes, both internalized and extracellular bound phage particles were accessible for staining. Without saponin treatment (saponin−), FIG. 5(a) illustrates that only extracellular phage were available for detection. These slides were then processed for immunofluorescence microscopy with antibody against filed phage, followed by a fluorescein-conjugated secondary antibody to visualize phage particles.

| Molecule | cytotoxic effect on glioma cells (MTT, cell viability) [1] | effect on normal astrocytes (MTT, cell viability) [2] | internalization of phage by cells [3] |
| --- | --- | --- | --- |
| CC(C)C[C@@H](NC(=O)[C@H](N)CCCCN)C(=O)N[C@H](C)C(=O)N[C@H](CCCCN)C(=O)N[C@H](CC(C)C)C(=O)N[C@H](C)C(=O)N[C@H](CCCCN)C(=O)N[C@H](CCCCN)C(=O)N[C@H](CC(C)C)C(=O)N[C@H](C)C(=O)N[C@H](CCCCN)C(=O)N[C@H](CC(C)C)C(=O)N[C@H](C)C(=O)N[C@H](CCCCN)C(=O)O [cytotoxic peptide alone, d(KLAKLAK)2, reference compound] | no effect | None of the peptides, with or without targeting, demonstrated any effect | – |
| CC(C)C[C@@H](NC(=O)[C@@H](CCCCN)NC(=O)CNC(=O)CNC(=O)[C@H](CCCCN)NC(=O)[C@@H](NC(=O)[C@H](CO)NC(=O)[C@@H](N)CC(=O)O)[C@@H](C)O)C(=O)N[C@H](C)C(=O)N[C@H](CCCCN)C(=O)N[C@H](CC(C)C)C(=O)N[C@H](C)C(=O)N[C@H](CCCCN)C(=O)N[C@H](CCCCN)C(=O)N[C@H](CC(C)C)C(=O)N[C@H](C)C(=O)N[C@H](CCCCN)C(=O)N[C@H](CC(C)C)C(=O)N[C@H](C)C(=O)N[C@H](CCCCN)C(=O)O [peptide drug, DSTK-GG-d(KLAKLAK)2] | clear cytotoxic effect | None of the peptides, with or without targeting, demonstrated any effect | – |
| DSTKSGNM [DSTKSGNM phage] | – | – | internalized |
